Measured values published in the supplement of paper PMC11616607.

What was measured:
Experiment in all cases: drug sensitivity score (DSS) from 5-point dose-response viability curve (DSS (area-under-curve based score)); higher = more sensitive (stronger growth inhibition or killing); extreme values may be limits of the assay
Conditions in all cases: exposure time: 72 h; concentration range: 5 concentrations over 10,000-fold range
CAOV3 = system: CAOV3
Method in brief: (§1)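 Ovarian cancer and normal ovarian cell lines were tested in 384-well plates. Drugs were acoustically dispensed (Echo 550) in DMSO or water at five concentrations spanning a 10,000-fold range, then 1,500 cells per well were added and incubated 3 days at 37°C, 5% CO2. Viability was read by CellTiter-Glo luminescence on a PHERAstar FS. Drug sensitivity score was derived per cell line and drug with Breeze software; higher means more sensitive, zero means no response.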

COV318 = system: COV318
Method in brief: as §1

COV362 = system: COV362
Method in brief: as §1

HOSE1C = system: HOSE1C
Method in brief: as §1

HOSE2C = system: HOSE2C
Method in brief: as §1

JHOS2 = system: JHOS2
Method in brief: as §1

Kuramochi = system: Kuramochi
Method in brief: as §1

OV90 = system: OV90
Method in brief: as §1

OVCAR4 = system: OVCAR4
Method in brief: as §1

OVCAR5 = system: OVCAR5
Method in brief: as §1

OVCAR8 = system: OVCAR8
Method in brief: as §1

Ovsaho = system: Ovsaho
Method in brief: as §1

Row | Compound | drug sensitivity score (CAOV3) | drug sensitivity score (COV318) | drug sensitivity score (COV362) | drug sensitivity score (HOSE1C) | drug sensitivity score (HOSE2C) | drug sensitivity score (JHOS2) | drug sensitivity score (Kuramochi) | drug sensitivity score (OV90) | drug sensitivity score (OVCAR4) | drug sensitivity score (OVCAR5) | drug sensitivity score (OVCAR8) | drug sensitivity score (Ovsaho)
1 | CCN(c1cc(-c2ccc(CN3CCOCC3)cc2)cc(C(=O)NCc2c(C)cc(C)[nH]c2=O)c1C)C1CCOCC1 [Tazemetostat] | 0 | 0 | 2.3 | 0 | 0 | 2.1 | 0 | 0 | 0.1 | 0 | 0 | 0
2 | CNC(=O)c1cc(COc2nnc(Nc3ccc(Cl)cc3)c3ccoc23)ccn1 [Telatinib] | 0 | 0.2 | 0 | 0 | 0 | 0 | 0.1 | 0 | 0 | 0 | 0 | 0
3 | Cn1nnc2c(C(N)=O)ncn2c1=O [Temozolomide] | 0 | 0 | 0 | 0 | 0.5 | 0 | 0 | 0 | 0 | 0 | 0 | 0
4 | CO[C@H]1C[C@@H]2CC[C@@H](C)[C@@](O)(O2)C(=O)C(=O)N2CCCC[C@H]2C(=O)O[C@H]([C@H](C)C[C@@H]2CC[C@@H](OC(=O)C(C)(CO)CO)[C@H](OC)C2)CC(=O)[C@H](C)/C=C(\C)[C@@H](O)[C@@H](OC)C(=O)[C@H](C)C[C@H](C)/C=C/C=C/C=C/1C [Temsirolimus] | 6.6 | 0 | 0 | 3.9 | 3.2 | 2.8 | 3.2 | 11.2 | 3.1 | 8 | 7.6 | 3
5 | COc1cc([C@@H]2c3cc4c(cc3[C@@H](O[C@@H]3O[C@@H]5CO[C@@H](c6cccs6)O[C@H]5[C@H](O)[C@H]3O)[C@H]3COC(=O)[C@H]23)OCO4)cc(OC)c1O [Teniposide] | 0 | 0 | 0 | 0 | 0 | 0 | 0 | 0 | 0 | 0 | 0 | 0
6 | CN1CCC(COc2cnc(-c3cccc(Cn4nc(-c5cccc(C#N)c5)ccc4=O)c3)nc2)CC1 [Tepotinib] | 0 | 0 | 0 | 0 | 0 | 0.5 | 0 | 0 | 0 | 0 | 0 | 0.8
7 | COc1cc2c(Nc3ccc(Cl)c(Cl)c3F)ncnc2cc1OC[C@@H]1C[C@@H]2CN(C)C[C@@H]2C1 [Tesevatinib] | 8.4 | 0 | 0.9 | 1.6 | 0 | 0.1 | 1.2 | 0 | 1.6 | 5 | 1.3 | 2.2
8 | O=C1CCC(N2C(=O)c3ccccc3C2=O)C(=O)N1 (centres undefined) [Thalidomide] | 0 | 0 | 0 | 0 | 0 | 0 | 0 | 0 | 0 | 0 | 0 | 0
9 | Nc1nc2[nH]cnc2c(=S)[nH]1 [Thioguanine] | 11.9 | 0.7 | 9.4 | 3.4 | 2.4 | 2.3 | 7.2 | 6.3 | 9.9 | 13.4 | 12.7 | 8
10 | O=c1sn(-c2cccc3ccccc23)c(=O)n1Cc1ccccc1 [Tideglusib] | 0 | 0 | 0 | 0 | 0 | 0 | 0 | 0 | 0 | 0 | 0 | 0.1
11 | Cn1cncc1[C@@](N)(c1ccc(Cl)cc1)c1ccc2c(c1)c(-c1cccc(Cl)c1)cc(=O)n2C [Tipifarnib] | 3.1 | 5.2 | 1.7 | 9.2 | 3 | 3.1 | 6.8 | 4.7 | 4.7 | 4.3 | 4.2 | 7.5
12 | CC#CC(=O)N1CC[C@@H](n2c(=O)n(-c3ccc(Oc4ccccc4)cc3)c3c(N)ncnc32)C1 [Tirabrutinib] | 1.6 | 0 | 0 | 0 | 0 | 0 | 1.3 | 0 | 0 | 0.8 | 0 | 0.3
13 | O=C1NC(=O)[C@@H](c2cn3c4c(cccc24)CCC3)[C@@H]1c1c[nH]c2ccccc12 [Tivantinib] | 3.7 | 1.9 | 1.6 | 5.2 | 4.7 | 3 | 2.9 | 2.8 | 1.6 | 4 | 4.1 | 4.2
14 | COc1cc2nccc(Oc3ccc(NC(=O)Nc4cc(C)on4)c(Cl)c3)c2cc1OC [Tivozanib] | 1.8 | 0.6 | 0 | 2.4 | 6.8 | 0.2 | 1.7 | 5.6 | 2.3 | 4 | 2.6 | 0.1
15 | C[C@@H]1CCN(C(=O)CC#N)C[C@@H]1N(C)c1ncnc2[nH]ccc12 [Tofacitinib] | 0 | 0 | 0 | 2.8 | 0.2 | 0 | 0 | 0.3 | 0 | 0.2 | 0 | 0
16 | CC[C@@]1(O)C(=O)OCc2c1cc1n(c2=O)Cc2cc3c(CN(C)C)c(O)ccc3nc2-1 [Topotecan] | 18.2 | 6.3 | 5.7 | 26.6 | 24.8 | 11 | 5.4 | 15.4 | 7.2 | 10.1 | 13.5 | 8.5
17 | CN(C)CCOc1ccc(/C(=C(/CCCl)c2ccccc2)c2ccccc2)cc1 [Toremifene] | 1.8 | 2.3 | 0.6 | 3.5 | 1.6 | 2 | 3.5 | 5.3 | 2 | 4.9 | 2.9 | 3.5
18 | CC(C)C[C@@H](C(=O)N[C@H](C(=O)OC1CCCC1)c1ccccc1)[C@H](O)C(=O)NO [Tosedostat] | 7.4 | 0.4 | 0 | 0 | 2.1 | 15.7 | 0.6 | 12.3 | 7.4 | 8.3 | 6.9 | 5.1
19 | Cc1cc(Nc2cc(N3CCN(C)CC3)nc(Sc3ccc(NC(=O)C4CC4)cc3)n2)n[nH]1 [Tozasertib] | 25.2 | 1.3 | 1.6 | 5.2 | 6.8 | 2.1 | 3.6 | 6.4 | 5.8 | 6.1 | 6.5 | 2.3
20 | CC(=O)Nc1cccc(-n2c(=O)n(C3CC3)c(=O)c3c(Nc4ccc(I)cc4F)n(C)c(=O)c(C)c32)c1 [Trametinib] | 11.8 | 0 | 4.9 | 0 | 0 | 6.7 | 7.1 | 25 | 1.9 | 12.9 | 3.4 | 12.4
21 | CC1=C(/C=C/C(C)=C/C=C/C(C)=C/C(=O)O)C(C)(C)CCC1 [Tretinoin] | 0 | 0 | 0 | 0 | 5.7 | 0.5 | 0 | 0 | 0 | 0 | 0 | 0
22 | NC(=S)N/N=C/c1ncccc1N [Triapine] | 4.1 | 0.6 | 0.5 | 9.7 | 7.7 | 3.1 | 0.5 | 1.1 | 0 | 2.6 | 4.9 | 2.4
23 | O=c1[nH]c(=O)n([C@H]2C[C@H](O)[C@@H](CO)O2)cc1C(F)(F)F [Trifluridine] | 3.3 | 0 | 0 | 0 | 0 | 0.6 | 0 | 2.1 | 1.1 | 2.9 | 2.7 | 2
24 | O=C(CCCCCCC(=O)Nc1ccc([C@H]2O[C@@H](CSc3nc(-c4ccccc4)c(-c4ccccc4)o3)C[C@@H](c3ccc(CO)cc3)O2)cc1)NO [Tubacin] | 1.8 | 2 | 0.7 | 2.5 | 2.6 | 1.7 | 2.6 | 2.4 | 2.7 | 2.4 | 5.6 | 2.3
25 | CN1CCc2c(c3ccccc3n2Cc2ccc(C(=O)NO)cc2)C1 [Tubastatin A] | 0.7 | 0.9 | 1.7 | 4.2 | 2.7 | 1.8 | 1.5 | 3.4 | 1.7 | 5.2 | 4.6 | 1
26 | Cc1cc(Nc2ncnc3ccc(NC4=NC(C)(C)CO4)cc23)ccc1Oc1ccn2ncnc2c1 [Tucatinib] | 0 | 0 | 0 | 0 | 0 | 0 | 0 | 0 | 0 | 0 | 0 | 0
27 | Nc1cc(F)ccc1NC(=O)c1ccc(CNC(=O)/C=C/c2cccnc2)cc1 [Tucidinostat] | 4.3 | 3.9 | 0 | 14.7 | 10.8 | 3.5 | 2.1 | 7.2 | 1.7 | 7 | 8 | 3
